Laboratory results as given in paper PMC4594013 (Frontiers in Pharmacology, 2015).
Several values for one entry are separate records, joined by “and”; a condition that tells them apart may be missing. Equal values may be shown once. Where a name gives a salt, the structure may show the parent alone. Read-outs that look alike come from different tables or passages of the source.

Key:
[1] = molecular target: T1, OAT2-tv1 (Homo sapiens, UniProt Q9Y694); assay: Cellular uptake of radiolabeled compounds by CHO, HEK or MDCK cells stably expressing OAT2-tv1; details: for uptake compared to respective parental cells: CHO-, HEK- and MDCK-OAT2-tv1 cells, para-aminohippurate 8 nM, estrone-3-sulfate 10 nM, glutarate 18 μM
T1 sequence (Q9Y694 1-546 isoform Q9Y694-2): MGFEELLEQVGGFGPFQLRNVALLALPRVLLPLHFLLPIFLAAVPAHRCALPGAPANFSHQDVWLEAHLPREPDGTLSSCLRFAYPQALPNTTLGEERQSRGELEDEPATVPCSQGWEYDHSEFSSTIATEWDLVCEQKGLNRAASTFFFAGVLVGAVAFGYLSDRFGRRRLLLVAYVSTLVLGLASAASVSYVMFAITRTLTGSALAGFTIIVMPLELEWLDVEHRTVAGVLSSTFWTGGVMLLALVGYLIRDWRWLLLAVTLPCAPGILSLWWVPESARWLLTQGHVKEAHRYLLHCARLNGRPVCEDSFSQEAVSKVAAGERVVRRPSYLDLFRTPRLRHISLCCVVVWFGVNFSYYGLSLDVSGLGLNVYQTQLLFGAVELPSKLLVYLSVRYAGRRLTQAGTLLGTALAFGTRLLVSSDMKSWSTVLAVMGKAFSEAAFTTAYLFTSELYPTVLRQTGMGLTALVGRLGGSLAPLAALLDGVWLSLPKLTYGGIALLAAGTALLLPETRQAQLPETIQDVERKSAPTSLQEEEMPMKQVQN
Procedure: (§1) All experiments examining cellular radiolabeled compound uptake were conducted using cells grown to confluence in 24-well flat bottom plates. The transport solution consisted of WB (room temperature) containing radiolabeled compound and the uptake period for all experiments was at an initial rate time point of 5 min. [^3H]Penciclovir served as the probe OAT2 substrate. We also examined the uptake of [^3H]para-aminohippurate, [^3H]estrone-3-sulfate, [^14C]glutarate, [^14C]succinate, [^3H]paclitaxel, and [^3H]dehydroepiandrosterone sulfate by OAT2 since published studies indicate that they are substrates of the transport protein ([Sun et al., 2001]; [Kobayashi et al., 2005a]). […] For all cellular uptake experiments, the medium was aspirated and the cells were rinsed once with WB (0.3 ml). Following the uptake period, cells were washed three times with ice-cold WB (0.5 ml each wash). After aspirating the final wash the cells were lysed in 0.5 N NaOH/1% SDS (0.4 ml) for ∼30 min on an orbital shaker. 1 N HCl (0.2 ml) was then added to neutralize the NaOH, and the cell lysates (0.5 ml) were transferred to scintillation vials containing liquid scintillation cocktail (CytoScint ES, MP Biomedicals). Cellular radioactivity content was determined with a Beckman LS6500 liquid scintillation counter. Protein content was determined using the bicinchoninic acid method. See the Figure and Table Legends for additional details describing the experimental conditions used.
FIGURE 2 Cellular accumulation of [^3H]penciclovir (A), [^3H]para-aminohippurate (B), [^3H]estrone-3-sulfate (C), or [^14C]glutarate (D) by parental CHO, HEK, or MDCK cells, or CHO, HEK, or MDCK cells stably expressing either OAT2-tv1 or OAT2-tv2. The concentration of [^3H]penciclovir in the transport solution was 0.1 μM for CHO and MDCK cell experiments, and 0.5 μM for HEK cell experiments. The concentrations of [^3H]para-aminohippurate, [^3H]estrone-3-sulfate and [^14C]glutarate were 8 nM, 10 nM, and 18 μM, respectively. Uptake was conducted for 5 min at room temperature.
FIGURE 4 Cellular accumulation of [^14C]succinate (18.5 μM) by CHO parental cells, CHO-OAT2-tv1 cells or CHO cells stably expressing the Na-dicarboxylate cotransporter 3 (NaDC3). Uptake was conducted for 5 min. Values are the mean ± standard error of the mean of four experiments for CHO parental and CHO-OAT2-tv1 cells. A single uptake experiment was performed with CHO-NaDC3 cells.

[2] = molecular target: T2, OAT2-tv2 (Homo sapiens, UniProt Q9Y694); assay: Cellular uptake of radiolabeled compounds by CHO, HEK or MDCK cells stably expressing OAT2-tv2; format: cell-based; set-up: The open reading frame of the human ortholog of OAT2 transcript variant 2 (OAT2-tv2) containing 548 amino acids was amplified from a construct obtained from Origene; host or cells: CHO, HEK and MDCK Flp-In cells; details: HEK- and MDCK-OAT2-tv2 cells, penciclovir 0.1/0.5 μM, para-aminohippurate 8 nM, estrone-3-sulfate 10 nM, glutarate 18 μM, 5 min
T2 sequence (Q9Y694 1-548): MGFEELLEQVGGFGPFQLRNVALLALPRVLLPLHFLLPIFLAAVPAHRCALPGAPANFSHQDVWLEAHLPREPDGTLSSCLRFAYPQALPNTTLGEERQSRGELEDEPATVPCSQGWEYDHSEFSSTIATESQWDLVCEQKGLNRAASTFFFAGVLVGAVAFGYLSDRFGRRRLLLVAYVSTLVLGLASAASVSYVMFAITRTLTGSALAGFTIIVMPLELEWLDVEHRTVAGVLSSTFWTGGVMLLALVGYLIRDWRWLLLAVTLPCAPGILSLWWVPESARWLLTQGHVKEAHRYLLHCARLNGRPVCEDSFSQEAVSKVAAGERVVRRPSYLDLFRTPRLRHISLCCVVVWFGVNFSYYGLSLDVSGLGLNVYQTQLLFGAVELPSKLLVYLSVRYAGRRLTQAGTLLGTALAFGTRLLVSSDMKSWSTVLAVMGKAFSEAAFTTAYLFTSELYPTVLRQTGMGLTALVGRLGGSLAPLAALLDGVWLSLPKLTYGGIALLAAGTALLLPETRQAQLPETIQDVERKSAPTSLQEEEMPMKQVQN
Procedure: [^3H]Penciclovir served as the probe OAT2 substrate. […] Protein content was determined using the bicinchoninic acid method.
Uptake was conducted for 5 min at room temperature.

[3] = molecular target: T1, OAT2-tv1; assay: Inhibition of [3H]penciclovir uptake into CHO-OAT2-tv1 cells; format: cell-based; details: 5 min; for % Inhibition: inhibition of [3H]penciclovir uptake by CHO-OAT2-tv1 cells at the maximum concentration of test compound (Table 2, c1); for % Inhibition / IC50: room temperature; for cis-inhibition of penciclovir uptake: CHO-OAT2-tv1 cells, test compound 1 mM, [3H]penciclovir ∼30 nM
Procedure: as §1
The concentration of each Kreb’s cycle intermediate was 1 mM. Uptake was conducted for 5 min.

[4] = system: OAT2-tv3; set-up: method as in Sato et al., 2010; details: OAT2-tv3 in HEK293 cells; ref Sato et al., 2010; cited from earlier work
[5] = molecular target: T1, OAT2-tv1; details: cited from earlier work
[6] = system: OAT2 with an unidentified sequence; details: cited from earlier work
[7] = molecular target: T2, OAT2-tv2; set-up: method as in Kobayashi et al., 2005a; details: OAT2-tv2 in Xenopus oocytes pre-loaded with 5 mM compound; ref Kobayashi et al., 2005a; cited from earlier work
[8] = system: CHO parental cells; assay: Cellular accumulation of radiolabeled compounds in CHO parental cells; format: cell-based, Chinese hamster; details: [3H]dehydroepiandrosterone sulfate 12 nM, [3H]paclitaxel 22 nM, n = 3
[9] = inhibition of [3H]penciclovir uptake by CHO-OAT2-tv1 cells, read-out: IC50
[10] = IC50, inhibition of [3H]penciclovir uptake by CHO-OAT2-tv1 cells

Structure (SMILES)	% Inhibition [3]	IC50 [3, 9]	also measured
O=C(O)CCCC(=O)O [glutarate]	–	–	uptake compared to respective parental cells ([1]; 5 min): not different than uptake into the respective parental cells; uptake compared to respective parental cells [2]: not different than uptake into the respective parental cells
CCOc1cc(CC(=O)N[C@@H](CC(C)C)c2ccccc2N2CCCCC2)ccc1C(=O)O [Repaglinide]	99%	30 ± 3.6 µM	–
CCCCC[N+](CCCCC)(CCCCC)CCCCC [Tetrapentylammonium]	49%	–	IC50 [3, 10]: 279 ± 142 µM
O=C(O)C[C@@H](O)C(=O)O [D-malate]	–	–	cis-inhibition of penciclovir uptake [3]: none of the Kreb’s cycle intermediates tested, including succinate and fumarate, cis-inhibited penciclovir uptake
CCCCC[C@H](O)/C=C/[C@H]1[C@H](O)CC(=O)[C@@H]1C/C=C\CCCC(=O)O [Prostaglandin E2]	96%	26.8 ± 2.4 µM	–
CCCc1nc2c(C)cc(-c3nc4ccccc4n3C)cc2n1Cc1ccc(-c2ccccc2C(=O)O)cc1 [Telmisartan]	96%	17.1 ± 1.3 µM	–
Oc1ncnc2[nH]ncc12 [Allopurinol]	95%	–	IC50 [3, 10]: 70 µM and 70.1 µM; inhibition of uric acid transport [4]: did not inhibit uric acid transport; substrate of OAT2-tv1 ([5]; ref Cropp et al., 2008): substrate
CN(Cc1cnc2nc(N)nc(N)c2n1)c1ccc(C(=O)N[C@@H](CCC(=O)O)C(=O)O)cc1 [Methotrexate]	76%	–	–
Nc1nc2c(ncn2CCC(CO)CO)c(=O)[nH]1 [Penciclovir]	85%	78.4 ± 8.2 µM	uptake of penciclovir, fold higher compared to parental cells ([1]; CHO-OAT2-tv1 cells, [3H]penciclovir 0.1 μM, 5 min): 21 fold; uptake of penciclovir, fold higher compared to parental cells ([1]; HEK-OAT2-tv1 cells, [3H]penciclovir 0.5 μM, 5 min): 39 fold; uptake of penciclovir, fold higher compared to parental cells ([1]; MDCK-OAT2-tv1 cells, [3H]penciclovir 0.1 μM, 5 min): 5 fold; substrate of OAT2-tv1 ([5]; ref Cheng et al., 2012): clearly substrates of OAT2-tv1; uptake compared to respective parental cells [2]: not different from uptake into the respective parental cells
Nc1ccc(C(=O)NCC(=O)O)cc1 [para-aminohippurate]	99%	210 µM	uptake compared to respective parental cells ([1]; 5 min): not different than uptake into the respective parental cells; uptake by HEK-OAT2-tv1 cells ([5]; ref Cropp et al., 2008): failed to observe appreciable uptake; uptake compared to respective parental cells [2]: not different than uptake into the respective parental cells
CCCN(CCC)S(=O)(=O)c1ccc(C(=O)O)cc1 [Probenecid]	64%	–	–
C[C@]12CC[C@@H]3c4ccc(OS(=O)(=O)O)cc4CC[C@H]3[C@@H]1CCC2=O [Estrone Sulfate]	95%	36.1 ± 3.9 µM	uptake compared to respective parental cells ([1]; 5 min): not different than uptake into the respective parental cells; uptake compared to respective parental cells [2]: not different than uptake into the respective parental cells
COc1ccc2c(c1)c(CC(=O)O)c(C)n2C(=O)c1ccc(Cl)cc1 [Indomethacin]	99%	–	IC50 ([6]; ref Khamdang et al., 2002): 64.1 µM
CCCCC(=O)N(Cc1ccc(-c2ccccc2-c2nnn[nH]2)cc1)[C@H](C(=O)O)C(C)C [Valsartan]	86%	127 ± 29 µM	–
O=C(O)/C=C/C(=O)O [fumarate]	–	–	cis-inhibition of penciclovir uptake [3]: none of the Kreb’s cycle intermediates tested, including succinate and fumarate, cis-inhibited penciclovir uptake; stimulation of estrone-3-sulfate uptake by pre-loading [7]: 1.7 fold
CC(=O)O[C@H]1C(=O)[C@@]2(C)[C@H]([C@H](OC(=O)c3ccccc3)[C@]3(O)C[C@H](OC(=O)[C@H](O)[C@@H](NC(=O)c4ccccc4)c4ccccc4)C(C)=C1C3(C)C)[C@]1(OC(C)=O)CO[C@@H]1C[C@@H]2O [paclitaxel]	–	–	cellular accumulation ([1]; 5 min, 22 nM): 90 ± 5.1 fmoles ⋅ mg protein^-1 ⋅ min^-1; mediated transport by OAT2-tv1 ([1]; expressed in CHO cells): unable to show mediated transport; cellular accumulation [8]: 89 ± 3.8 fmoles ⋅ mg protein^-1 ⋅ min^-1
Nc1ccn(C[C@@H](CO)OCP(=O)(O)O)c(=O)n1 [Cidofovir]	53%	–	–
NS(=O)(=O)c1cc(C(=O)O)c(NCc2ccco2)cc1Cl [Furosemide]	90%	–	IC50 ([6]; ref Hasannejad et al., 2004): 603 µM
O=C(O)CC(=O)C(=O)O [oxaloacetate]	–	–	cis-inhibition of penciclovir uptake [3]: none of the Kreb’s cycle intermediates tested, including succinate and fumarate, cis-inhibited penciclovir uptake
CN/C(=N/CCSCc1nc[nH]c1C)NC#N [Cimetidine]	95%	57 µM and 57.2 µM	inhibition of OAT2 ([6]; ref Khamdang et al., 2004): no inhibition
CC[N+](CC)(CC)CC [Tetraethylammonium]	42%	54.3 ± 33 µM	–
Nc1nc(O)c2ncn(COC(CO)CO)c2n1 [ganciclovir]	–	–	substrate of OAT2-tv1 ([5]; ref Cheng et al., 2012): clearly substrates of OAT2-tv1
CC[C@H]1OC(=O)[C@H](C)[C@@H](O[C@H]2C[C@@](C)(OC)[C@@H](O)[C@H](C)O2)[C@H](C)[C@@H](O[C@@H]2O[C@H](C)C[C@H](N(C)C)[C@H]2O)[C@](C)(O)C[C@@H](C)C(=O)[C@H](C)[C@@H](O)[C@]1(C)O [Erythromycin]	65%	12 ± 5.4 µM	–
